The subject of data set [1] is MV4-11 cells. Kind of data set: Microdilution checkerboard assay, 25c combined with Venetoclax. The class given is cell-based. Particulars: Homo sapiens, 72 h, read-out: Inhibition Rate (%). How it is done: The inhibition effect of 25c combined with Venetoclax on the proliferation of MV4-11 cells was determined by microdilution checkerboard assay. CompuSyn software was used to calculate the combined action index of the two compounds, and the cell inhibition rates of the two compounds acting alone and the combined action were input to calculate the combination index (CI) to evaluate the synergistic effect of the drugs. A CI value less than 1 indicates a synergistic effect, a CI value equal to 1 indicates an additive effect and a CI value greater than 1 indicates an antagonistic effect.

Data set [2] is described as follows: In vitro stability in artificial intestinal juice. Particulars: 37 °C, within 24 h, degradation beginning after about 8 h. Type of data set: in vitro ADME. How it is done: (§1) Equal samples were collected, and 600 μL acetonitrile was added to quench enzyme reactions. The reaction mixture was swirled for 30 s and then centrifuged at 15,000 rpm at 4 °C for 15 min. The supernatant of each sample was analyzed directly by HPLC (1260 Infinity II, Agilent Technologies, Waldbronn, Germany).

Data set [3] concerns MV4-11 cells. Put plainly: Western blot analysis. Type of data set: cell-based. The conditions noted are these: 24 h. How it is done: MV4-11 cells were inoculated into 12-well plates at a density of 800,000 cells/mL. After incubation overnight, each well was treated with different concentrations of 25c and Venetoclax alone or in combination. After treatment for 24 h, the cells were collected and washed with pre-cooled PBS. A protease inhibitor (cocktail) and RIPA buffer were added for cell lysis. The decomposed solution was centrifuged at 12,000 rpm for 15 min at 4 °C, and the extracted protein was located in the supernatant. The proteins in each sample were denatured by heating at 100 °C in loading buffer (5×) for 10 min. The same amount of proteins in each sample was separated by SDS-PAGE and then electrotransferred to a PVDF membrane (Merck Millipore, Billerica, MA, USA) and enclosed in 5% skim milk powder for 1 h. The primary antibody diluted with an immune response booster solution was incubated in a shaking bed at 4 °C overnight, and the horseradish (HRP)-conjugated second antibody diluted with 5% skim milk powder was incubated at room temperature for 1 h on the second day. After the PVDF membrane was washed with TBST, the target protein bands could be detected with chemiluminescent reagents (Millipore, Billerica, MA, USA) and visualized in the Tanon 5200 + fluorescence imager.
The primary antibodies Caspase 3 (including Cleaved Caspase-3) (sc-56053), Mcl-1 (94296S), Bcl-xL (ab98143), γ-H2AX (9718S), AcHH3 (Lys27) (8173S), AcHH4 (sc-377520), HH3 (ab1791), Ac-tubulin (sc-23950), HDAC6 (sc-28386), α-tubulin (sc-23948), GAPDH (sc-59540) and β-actin (8H10D10) were purchased from Abcam, Cell Signaling Technology and Santa Cruz Biotechnology.
On the technique in general: In western blotting, separated proteins are transferred to a membrane and probed.

Data set [4] in a line: In vitro stability in artificial gastric juice. The class given is in vitro ADME. Particulars: 37 °C, within 24 h. How it is done:
as §1

Data set [5] relates to Kasumi-1 cells. Put plainly: Cell viability assay (resazurin), Kasumi-1. The class given is cell-based. Particulars: Homo sapiens, Kasumi 1, 72 h; read-out: IC50 anti-proliferative activity Kasumi-1. How it is done: The AML cell lines MV4-11, THP-1, KASUMI-1 and HL-60 were purchased from Procell Life Science & Technology Co., Ltd. (Wuhan, China). THP-1 and KASUMI-1 were cultured in RPMI-1640 complete medium containing 10% fetal bovine serum and 1% penicillin and streptomycin. MV4-11 was cultured in IMDM complete medium containing 10% fetal bovine serum and 1% penicillin and streptomycin. HL-60 was cultured in IMDM complete medium containing 20% fetal bovine serum and 1% penicillin and streptomycin. All cell lines were cultured in an incubator with humidity set at 95%, temperature at 37 °C and 5% CO2.
MV4-11, THP-1, KASUMI-1 and HL-60 cells were plated in 96-well transparent plates (10,000 to 15,000 cells/100 μL) and after incubation overnight, cells were treated with gradient-diluted inhibitors with several concentrations. After the cells were incubated with inhibitors for 72 h, 1 mg/mL of Resazurin (Sigma-Aldrich, Saint Louis, MO, USA) was added (working concentration was 0.1 mg/mL). After incubation at 37 °C for about 3 h, the fluorescence intensity of […] was measured at 560 nm/590 nm (excitation/emission) with a Spectra Max i3 Microplate Reader, and the cell viability was determined. The IC50 curve was drawn using GraphPad Prism 9.5 software.
(The colour change of resazurin is a common sign of viable cells or microbes.)

In data set [6] the target is T1, HDAC5 (Homo sapiens, UniProt Q9UQL6).
T1 construct: purchased BPS Bioscience
Put plainly: In vitro HDAC inhibition fluorescence assay, HDAC5. The class given is biochemical. How it is done:
All of the HDAC enzymes were purchased from BPS Bioscience. In vitro HDAC inhibition assays were conducted as previously described. In brief, 20 μL of recombinant HDAC enzyme solution (HDAC1-9, 11) was mixed with various concentrations of the tested compound (20 μL). The mixture was incubated at 37 °C for 1 h, and then, 10 μL of fluorogenic substrate (Boc-Lys (acetyl)-AMC for HDAC1, 2, 3 and 6; Boc-Lys (trifluoroacetyl)AMC for HDAC4, 5, 7, 8, 9 and 11) was added to achieve a final concentration of 50 μM. After incubation at 37 °C for 2 h, the catalysis was stopped by the addition of 10 μL of developer containing 30 mg/mL trypsin and 6 μM trichostatin A (TSA). Then, 30 min later, the fluorescence intensity was measured using a microplate reader at excitation and emission wavelengths of 360 and 460 nm, respectively. The inhibition ratios were calculated from the fluorescence intensity readings of tested wells relative to those of control wells, and the IC50 curves and values were determined by GraphPad Prism 6.0, using the “log(inhibitor) vs. normalized response-variable slope” function.

Broadly, the inhibition is the share of the control response that was lost under treatment. A word on the IC50: it is the concentration at which inhibition is half-maximal.

T1 sequence (Q9UQL6 whole entry): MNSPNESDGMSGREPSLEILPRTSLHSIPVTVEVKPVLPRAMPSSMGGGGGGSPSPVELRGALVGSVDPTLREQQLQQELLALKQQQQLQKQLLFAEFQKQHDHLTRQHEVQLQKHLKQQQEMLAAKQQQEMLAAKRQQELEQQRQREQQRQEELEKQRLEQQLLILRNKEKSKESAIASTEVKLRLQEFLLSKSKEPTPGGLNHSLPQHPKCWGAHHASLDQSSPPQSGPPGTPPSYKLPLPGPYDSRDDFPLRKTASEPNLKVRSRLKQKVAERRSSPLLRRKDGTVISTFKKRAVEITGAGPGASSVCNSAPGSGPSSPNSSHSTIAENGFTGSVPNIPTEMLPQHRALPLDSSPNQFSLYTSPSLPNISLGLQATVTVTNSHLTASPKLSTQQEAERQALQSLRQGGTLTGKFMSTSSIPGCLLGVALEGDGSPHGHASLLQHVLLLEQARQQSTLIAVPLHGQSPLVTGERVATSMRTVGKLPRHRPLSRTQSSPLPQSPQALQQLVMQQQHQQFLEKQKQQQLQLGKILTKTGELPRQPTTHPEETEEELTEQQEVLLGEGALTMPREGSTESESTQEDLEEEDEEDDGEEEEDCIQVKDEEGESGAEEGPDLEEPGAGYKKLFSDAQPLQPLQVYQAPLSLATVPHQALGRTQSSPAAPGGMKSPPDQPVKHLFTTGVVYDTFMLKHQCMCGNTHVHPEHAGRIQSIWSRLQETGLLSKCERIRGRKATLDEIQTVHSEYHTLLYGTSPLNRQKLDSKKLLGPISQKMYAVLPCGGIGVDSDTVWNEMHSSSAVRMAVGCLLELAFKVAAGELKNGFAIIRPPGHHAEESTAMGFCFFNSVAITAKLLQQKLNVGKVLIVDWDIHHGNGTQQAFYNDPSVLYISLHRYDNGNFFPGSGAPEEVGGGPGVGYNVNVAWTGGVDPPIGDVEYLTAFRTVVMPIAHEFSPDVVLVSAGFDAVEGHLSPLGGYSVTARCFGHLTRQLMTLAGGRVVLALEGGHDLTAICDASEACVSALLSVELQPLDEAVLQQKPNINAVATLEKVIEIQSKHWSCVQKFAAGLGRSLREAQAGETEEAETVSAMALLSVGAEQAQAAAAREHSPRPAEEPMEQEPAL

As for `CCCNNC(=O)C=Cc1ccc(CNCCc2ccccc2)cc1` [Compound 25c, 3-(4-((Phenethylamino)methyl)phenyl)-N′-propylacrylohydrazide], the inhibition at 0.13 µM in data set [1] (25c 0.13 μM alone) was determined as 15.8%. Besides, the inhibition at 0.19 µM in data set [1] (25c 0.19 μM alone) came out at 33.9%. Further, in data set [1] (25c 0.28 μM alone), the inhibition at 0.28 µM amounted to 69.8%. Also, in data set [2], the “degradation in artificial intestinal juice” value stood at 12.52%. For the same compound, the “level of cleaved-caspase3” value in data set [3] (25c monotherapy, 30 nM and 90 nM) is “No substantial alterations”. Further, in data set [3], the level of acetyl-tubulin result is listed as “increased”, the “level of acetylated histone H3 (AcHH3)” value is “significantly elevated” and the “level of acetylated histone H4 (AcHH4)” value is listed as “significantly elevated”. Besides, the “stability in artificial gastric juice” value in data set [4] is recorded as “relatively stable”. Besides, in data set [5], the IC50 came to 338 ± 125 nM. The 50% inhibitory concentration (IC50) in data set [6] was over 10000 nM.

The values are drawn from publication PMC11204923, “Marine Cytotoxin Santacruzamate A Derivatives as Potent HDAC1-3 Inhibitors and Their Synergistic Anti-Leukemia Effects with Venetoclax” (Marine Drugs, 2024).
